Laboratory results as given in a melting point compilation (Tetko et al.; mined from patent text by program, amines drawn as free bases though some values may be those of a salt).

melting point [°C] | SMILES
150 to 152 | Cn1nc(OC2=CC(CF)(CF)Oc3ccc(C(F)(F)C(F)(F)F)cc32)ccc1=O
283 to 286 | CC(C)(C)OC(=O)N1CCC(C(=O)N2CCc3ccc4[nH]c(=O)c(=O)[nH]c4c3C2)CC1
